Molecular target: T1, human oxytocin receptor (Homo sapiens, UniProt P30559)
T1 construct: host or cells: CHO cells (pcDNA3.1 vector)
T1 sequence (P30559 1-389): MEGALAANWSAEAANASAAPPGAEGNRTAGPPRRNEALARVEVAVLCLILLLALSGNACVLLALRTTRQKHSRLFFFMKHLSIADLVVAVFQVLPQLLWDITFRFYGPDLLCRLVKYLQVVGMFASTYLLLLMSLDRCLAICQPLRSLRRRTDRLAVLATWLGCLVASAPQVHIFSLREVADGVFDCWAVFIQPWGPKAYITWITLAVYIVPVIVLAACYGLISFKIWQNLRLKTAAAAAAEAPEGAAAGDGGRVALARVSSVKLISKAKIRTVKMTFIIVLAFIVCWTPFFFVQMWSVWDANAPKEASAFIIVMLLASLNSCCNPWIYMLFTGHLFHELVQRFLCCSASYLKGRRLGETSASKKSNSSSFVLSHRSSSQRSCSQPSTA
Test: Oxytocin binding in Chinese Hamster Ovary cell membranes expressing human oxytocin receptors
Details: 100 nM, CHO cell membranes, [3H]oxytocin, values without parentheses, read-out: OT % inhibition @ 100% nM

SMILES | inhibition at 0.1 µM
COc1cc(-c2ccccc2C)c(Cl)cc1C(=O)N1Cc2ccc(C(=O)N(C)C3CCN(C)CC3)n2Cc2ccccc21 [Example 180, 10-[(6-Chloro-3-methoxy-2′-methyl[1,1′-biphenyl]-4-yl)carbonyl]-N-methyl-N-(1-methyl-4-piperidinyl)-10,11-dihydro-5H-pyrrolo[2,1-c][1,4]benzodiazepine-3-carboxamide] | 98%
COc1cc(C(=O)N2Cc3ccc(C(=O)N(C)C4CCN(C)CC4)n3Cc3ccccc32)ccc1-c1cccc2ccccc12 [Example 182, 10-[3-Methoxy-4-(1-naphthyl)benzoyl]-N-methyl-N-(1-methyl-4-piperidinyl)-10,11-dihydro-5H-pyrrolo[2,1-c][1,4]benzodiazepine-3-carboxamide] | 70%
COc1ccccc1-c1ccc(C(=O)N2Cc3ccc(C(=O)N(C)C4CCN(C)CC4)n3Cc3ccccc32)cc1OC [Example 183, 10-[(2,2′-Dimethoxy[1,1′-biphenyl]-4-yl)carbonyl]-N-methyl-N-(1-methyl-4-piperidinyl)-10,11-dihydro-5H-pyrrolo[2,1-c][1,4]benzodiazepine-3-carboxamide] | 97%
COc1cccc(-c2cc(OC)c(C(=O)N3Cc4ccc(C(=O)N(C)C5CCN(C)C5)n4Cc4ccccc43)cc2Cl)c1 (stereo not drawn) [Example 191, 10-[(6-Chloro-3,3′-dimethoxy[1,1′-biphenyl]-4-yl)carbonyl]-N-methyl-N-(1-methyl-3-pyrrolidinyl)-10,11-dihydro-5H-pyrrolo[2,1-c][1,4]benzodiazepine-3-carboxamide] | 100%
COc1cc(C(=O)N2Cc3ccc(C(=O)N(C)C4CCN(C)C4)n3Cc3ccccc32)ccc1-c1ccccc1C (stereo not drawn) [Example 189, 10-[(2-Methoxy-2′-methyl[1,1′-biphenyl]-4-yl)carbonyl]-N-methyl-N-(1-methyl-3-pyrrolidinyl)-10,11-dihydro-5H-pyrrolo[2,1-c][1,4]benzodiazepine-3-carboxamide] | 99%
COc1cccc(-c2cc(OC)c(C(=O)N3Cc4ccc(C(=O)NCCN5CCCCC5)n4Cc4ccccc43)cc2Cl)c1 [Example 156, 10-[(6-Chloro-3,3′-dimethoxy[1,1′-biphenyl]-4-yl)carbonyl]-N-[2-(1-piperidinyl)ethyl]-10,11-dihydro-5H-pyrrolo[2,1-c][1,4]benzodiazepine-3-carboxamide] | 30%
COc1cccc(-c2ccc(C(=O)N3Cc4ccc(C(=O)N(C)C5CCN(C)C5)n4Cc4ccccc43)cc2C)c1 (stereo not drawn) [Example 186, 10-[(3′-Methoxy-2-methyl[1,1′-biphenyl]-4-yl)carbonyl]-N-methyl-N-(1-methyl-3-pyrrolidinyl)-10,11-dihydro-5H-pyrrolo[2,1-c][1,4]benzodiazepine-3-carboxamide] | 97%
COc1cccc(-c2ccc(C(=O)N3Cc4ccc(C(=O)N5CCN(CCN6CCOCC6)CC5)n4Cc4ccccc43)cc2OC)c1 [Example 211, {10-[(2,3′-Dimethoxy[1,1′-biphenyl]-4-yl)carbonyl]-10,11-dihydro-5H-pyrrolo[2,1-c][1,4]benzodiazepin-3-yl}{4-[2-(4-morpholinyl)ethyl]-1-piperazinyl}methanone] | 87%
COc1cc(C(=O)N2Cc3ccc(C(=O)N(C)C4CCN(C)CC4)n3Cc3ccccc32)ccc1-c1ccccc1C [Example 179, 10-[(2-Methoxy-2′-methyl[1,1′-biphenyl]-4-yl)carbonyl]-N-methyl-N-(1-methyl-4-piperidinyl)-10,11-dihydro-5H-pyrrolo[2,1-c][1,4]benzodiazepine-3-carboxamide] | 93%
COc1cccc(-c2cc(OC)c(C(=O)N3Cc4ccc(C(=O)N(C)C5CCN(C)CC5)n4Cc4ccccc43)cc2Cl)c1 [Example 181, 10-[(6-Chloro-3,3′-dimethoxy[1,1′-biphenyl]-4-yl)carbonyl]-N-methyl-N-(1-methyl4-piperidinyl)-10,11-dihydro-5H-pyrrolo[2,1-c][1,4]benzodiazepine-3-carboxamide] | 100%

The remaining lines, values ahead:

inhibition at 0.1 µM | SMILES
95% | COc1ccccc1-c1ccc(C(=O)N2Cc3ccc(C(=O)N(C)C4CCN(C)C4)n3Cc3ccccc32)cc1C (stereo not drawn) [Example 185, 10-[(2′-Methoxy-2-methyl[1,1′-biphenyl]-4-yl)carbonyl]-N-methyl-N-(1-methyl-3-pyrrolidinyl)-10,11-dihydro-5H-pyrrolo[2,1-c][1,4]benzodiazepine-3-carboxamide]
67% | C=CCN1CCN(C(=O)c2ccc3n2Cc2ccccc2N(C(=O)c2ccc(-c4ccccc4C(F)(F)F)c(C)c2)C3)CC1 [Example 230, (4-Allyl-1-piperazinyl)(10-{[2-methyl-2′-(trifluoromethyl)[1,1′-biphenyl]-4-yl]carbonyl}-10,11-dihydro-5H-pyrrolo[2,1-c][1,4]benzodiazepin-3-yl)methanone]
64% | COc1cccc(-c2ccc(C(=O)N3Cc4ccc(C(=O)N5CCN(C(C)C)CC5)n4Cc4ccccc43)cc2C)c1 [Example 235, (4-Isopropyl-1-piperazinyl){10-[(3′-methoxy-2-methyl[1,1′-biphenyl]-4-yl)carbonyl]-10,11-dihydro-5H-pyrrolo[2,1-c][1,4]benzodiazepin-3-yl}methanone]
79% | COc1cc(-c2ccccc2C)c(Cl)cc1C(=O)N1Cc2ccc(C(=O)N3CCN(C(C)C)CC3)n2Cc2ccccc21 [Example 238, {10-[(6-Chloro-3-methoxy-2′-methyl[1,1′-biphenyl]-4-yl)carbonyl]-10,11-dihydro-5H -pyrrolo[2,1-c][1,4]benzodiazepin-3-yl}(4-isopropyl-1-piperazinyl)methanone]
69% | COc1cccc(-c2ccc(C(=O)N3Cc4ccc(C(=O)N5CCN(C(C)C)CC5)n4Cc4ccccc43)cc2OC)c1 [Example 242, {10-[(2,3′-Dimethoxy[1,1′-biphenyl]-4-yl)carbonyl]-10,11-dihydro-5H-pyrrolo[2,1-c][1,4]benzodiazepin-3-yl}(4-isopropyl-1-piperazinyl)methanone]
98% | Cc1ccccc1-c1ccc(C(=O)N2Cc3ccc(C(=O)N4CCN(CCN5CCOCC5)CC4)n3Cc3ccccc32)cc1C [Example 218, {10-[(2,2′-Dimethyl[1,1′-biphenyl]-4-yl)carbonyl]-10,11-dihydro-5H-pyrrolo[2,1-c][1,4]benzodiazepin-3-yl}{4-[2-(4-morpholinyl)ethyl]-1-piperazinyl}methanone]
64% | COc1ccccc1-c1ccc(C(=O)N2Cc3ccc(C(=O)N4CCN(CCN5CCOCC5)CC4)n3Cc3ccccc32)cc1OC [Example 214, {10-[(2,2′-Dimethoxy[1,1′-biphenyl]-4-yl)carbonyl]-10,11-dihydro-5H-pyrrolo[2,1-c][1,4]benzodiazepin-3-yl}{4-[2-(4-morpholinyl)ethyl]-1-piperazinyl}methanone]
71% | C=CCN1CCN(C(=O)c2ccc3n2Cc2ccccc2N(C(=O)c2cc(Cl)c(-c4cccc(OC)c4)cc2OC)C3)CC1 [Example 226, (4-Allyl-1-piperazinyl){10-[(6-chloro-3,3′-dimethoxy[1,1′-biphenyl]-4-yl)carbonyl]-10,11-dihydro-5H-pyrrolo[2,1-c][1,4]benzodiazepin-3-yl}methanone]
-4% | COc1cc(-c2ccccc2C(F)(F)F)c(Cl)cc1C(=O)N1Cc2ccc(C(=O)O)n2Cc2ccccc21 [Example 15, 10-{[6-Chloro-3-methoxy-2′-trifluoromethyl-[1,1′-biphenyl]-4-yl]carbonyl}-10,11-dihydro-5H-pyrrolo[2,1-c][1,4]benzodiazepine-3-carboxylic acid]
77% | C=CCN1CCN(C(=O)c2ccc3n2Cc2ccccc2N(C(=O)c2ccc(-c4cccc(OC)c4)c(OC)c2)C3)CC1 [Example 228, (4-Allyl-1-piperazinyl){10-[(2,3′-dimethoxy[1,1′-biphenyl]-4-yl)carbonyl]-10,11-dihydro-5H -pyrrolo[2,1-c][1,4]benzodiazepin-3-yl}methanone]
82% | Cc1cc(C(=O)N2Cc3ccc(C(=O)N4CCN(CCN5CCOCC5)CC4)n3Cc3ccccc32)ccc1-c1ccccc1C(F)(F)F [Example 216, (10-{[2-Methyl-2′-(trifluoromethyl)[1,1′-biphenyl]-4-yl]carbonyl}-10,11-dihydro-5H -pyrrolo[2,1-c][1,4]benzodiazepin-3-yl){4-[2-(4-morpholinyl)ethyl]-1-piperazinyl}methanone]
86% | Cc1ccccc1-c1ccc(C(=O)N2Cc3ccc(C(=O)N4CCN(C(C)C)CC4)n3Cc3ccccc32)cc1C [Example 233, {10-[(2,2′-Dimethyl[1,1′-biphenyl]-4-yl)carbonyl]-10,11-dihydro-5H-pyrrolo[2,1-c][1,4]benzodiazepin-3-yl}(4-isopropyl-1-piperazinyl)methanone]
81% | COc1ccccc1-c1ccc(C(=O)N2Cc3ccc(C(=O)N4CCN(C(C)C)CC4)n3Cc3ccccc32)cc1C [Example 232, (4-Isopropyl-1-piperazinyl){10-[(2′-methoxy-2-methyl[1,1′-biphenyl]-4-yl)carbonyl]-10,11-dihydro-5H-pyrrolo[2,1-c][1,4]benzodiazepin-3-yl}methanone]
84% | C=CCN1CCN(C(=O)c2ccc3n2Cc2ccccc2N(C(=O)c2ccc(-c4ccccc4OC)c(C)c2)C3)CC1 [Example 222, (4-Allyl-1-piperazinyl){10-[(2′-methoxy-2-methyl[1,1′-biphenyl]-4-yl)carbonyl]-10,11-dihydro-5H-pyrrolo[2,1-c][1,4]benzodiazepin-3-yl}methanone]

From patent US7109193B2, “Tricyclic diazepines tocolytic oxytocin receptor antagonists” (Wyeth, priority 2001, dated 2006)
